Laboratory results published in patent publication US9526250B2, “Methods for delaying maturity of crops” (Plant Protectants, LLC, priority 2009, dated 2016).

Tests used:
green lemons = assay: Fruit dipping of green lemons, peel color development (example 1); format: in vivo; conditions: 2 min immersion at 50° F., incubated at 15° C., chart of FIG. 2 (1-8), initial color approx 5.5
Source text: (§1) The invention is further illustrated by the following non-limiting examples. It is to be appreciated that, although each of the exemplary experiments used potassium phosphite, that other salts of phosphorous acid, including without limitation, ammonium, sodium, and/or calcium salts, as well as phosphorous acid itself may also have been used. For examples 1 and 2 below, assessment of citrus fruit peel color was made using the following color grading charts (FIG. 1 for Navels; FIG. 2 for Lemons) in addition to the Dictionary of Color by Maerz and Paul, First Edition (1930). All experiments were conducted in solutions at approximately pH 6, although pH ranges from between about 3 and about 9 are acceptable.
Five different treatments (A-E below) were made. There were four replications for each of the five treatments, with each replicate comprising six fruit pieces. Thus, each treatment was applied to 24 fruit pieces. […]
After the treatments were applied and left to dry for 10 minutes, all treatments were recorded for peel color using FIG. 2 above and the Dictionary of Color, and rated for color development and photographed. The fruit was placed in humid incubators at 15° C. and monitored weekly for color development. […]

oranges (Navels) = assay: Fruit dipping of oranges at color break, peel color development (example 2); format: in vivo, navel oranges; conditions: 2 min immersion at 50° F., incubated at 15° C., chart of FIG. 1 (1-8), initial color 5.5
Source text: as §1
Five different treatments (A-E below) were made. There were four replications for each of the five treatments, with each replicate comprising six fruit pieces. Thus, each treatment was applied to 24 fruit pieces. The fruit treated in this example were oranges at the color break stage, the fruit being predominantly green with some development of orange color (initial color 5.5). […]
After the treatments were applied and left to dry for 10 minutes, all treatments were recorded for peel color using FIG. 1 above and the Dictionary of Color, and rated for color development and photographed. The fruit was placed in humid incubators at 15° C. and monitored weekly for color development. […]

[1] = test system: navel orange tree (variety Cara Cara); assay: Field spray of navel orange trees in situ, fruit color development (example 3); format: in vivo; conditions: Navels on trees, pH about 5-6, assessed approximately 30 days later, chart of FIG. 1
Source text: Five different treatments (T1-T5 below) were made. There were four replications for each of the five treatments, with each replicate comprising one navel orange tree (variety Cara Cara) in situ. Thus, each treatment was applied to 4 different trees. Treatments were all made using a motorized high volume agricultural sprayer and an application volume equivalent to 5000 L/ha (liters/hectare), or approximately 530 gallons/acre. This is approximately equivalent to 12.5 L (3.3 gal)/tree. The trees were sprayed during early color break (late October/early November) with a wetting agent added at 0.01% (v/v).
Treatments were as follows: • T1. Untreated trees=control. • T2. Water solution containing gibberellic acid at 16 ppm. • T3. Water solution containing potassium phosphite (expressed as equivalent amount of phosphorous acid) sprayed at 600 ppm. • T4. A tank water mixture of potassium phosphite (expressed as equivalent amount of phosphorous acid) sprayed at 300 ppm plus gibberellic acid at 16 ppm • T5. […]
The spray tank pH for all the treatments T2-T5 were adjusted with citric acid to a pH of between about 5 and about 6 (in accordance with the manufacturers instructions for gibberellic acid usage), and a small amount of a non ionic wetter added to the tank (0.01% v/v). […] The fruit on the trees were assessed for color development approximately 30 days later, during December. […]

firm green tomatoes = assay: Fruit dipping of firm green tomatoes, peel color development (example 4); format: in vivo; conditions: 2 min immersion at 75° F., incubated at 30° C., USDA chart of FIG. 5, initial 3.5
Source text: For example 4 below, assessment of the tomato peel color was made using the USDA color grading chart (FIG. 5) in addition to the Dictionary of Color.
The color grading chart (FIG. 5) is a reproduction of the “Tomato Color Standards USDA Visual Aid TM-L-1” which consists of a chart containing twelve color photographs illustrating certain color classification requirements. The official USDA chart is incorporated herein by this reference. Table 6 below sets forth approximate cross-references to the Dictionary of Color for the 12 colors of the USDA chart:
In example 4, five different treatments (A-E below) were made. There were four replications for each of the five treatments, with each replicate comprising six fruit pieces. Thus, each treatment was applied to 24 fruit pieces. The fruit treated in this example were firm green tomatoes according to the chart above was 3.5 (initial color 11-C-22) at the onset of color break. Immersion temperatures were approximately 75° F. (24° C.). […]
After the treatments were applied and left to dry for 10 minutes, all treatments were recorded for peel color using the Dictionary of Color and also the USDA Tomato Color Standards Chart (FIG. 5 herein), and rated for color development and photographed. […] (86° F.) and monitored weekly for color development. […]

[2] = gibberellic acid 100 ppm in water

| Compound | Mean Color Rating (green lemons; [2]) | Mean Color Rating (oranges (Navels); [2]) | Mean Color Rating ([1]; gibberellic acid 16 ppm sprayed at 5000 L/ha) | Mean Color Rating (firm green tomatoes; gibberellic acid 100 ppm) | Mean Color Rating (green lemons; 2% (w/w) potassium phosphite) | Mean Color Rating (oranges (Navels); 2% (w/w) potassium phosphite) | Mean Color Rating ([1]; potassium phosphite 600 ppm (as phosphorous acid) sprayed at 5000 L/ha) | Mean Color Rating (firm green tomatoes; 2% (w/w) potassium phosphite) |
| --- | --- | --- | --- | --- | --- | --- | --- | --- |
| C=C1C[C@]23C[C@@]1(O)CC[C@H]2[C@@]12C=C[C@H](O)[C@@](C)(C(=O)O1)[C@H]2[C@@H]3C(=O)O [Gibberellic acid (GA), gibberellic acid] | 3 b | 3.2 b | 3.2 b | 4.6 b | – | – | – | – |
| potassium phosphite | – | – | – | – | 3.6 c | 3.5 bc | 3.5 bc | 4.8 b |
